These results are taken from patent US6338955B2, “β1-4 N-acetylglucosaminyltransferase and gene encoding” (Kirin Beer Kabushiki Kaisha, priority 1996, dated 2002).

Entries after “also recorded” stand apart in the source; their conditions may differ. Read-outs that look alike come from different tables or passages of the source.

Experiment [1] has as its target T1, GnT-IV (Bos taurus, UniProt O77836).
T1 construct: it is thought that GnT-IV from bovine small intestine is a glycoprotein having at least Asn-linked sugar chains; from tissue; host or cells: bovine small intestine (microsome fraction, Triton X-100 solubilized, purified to Sample 7)
T1 sequence (O77836 93-535 limits assumed): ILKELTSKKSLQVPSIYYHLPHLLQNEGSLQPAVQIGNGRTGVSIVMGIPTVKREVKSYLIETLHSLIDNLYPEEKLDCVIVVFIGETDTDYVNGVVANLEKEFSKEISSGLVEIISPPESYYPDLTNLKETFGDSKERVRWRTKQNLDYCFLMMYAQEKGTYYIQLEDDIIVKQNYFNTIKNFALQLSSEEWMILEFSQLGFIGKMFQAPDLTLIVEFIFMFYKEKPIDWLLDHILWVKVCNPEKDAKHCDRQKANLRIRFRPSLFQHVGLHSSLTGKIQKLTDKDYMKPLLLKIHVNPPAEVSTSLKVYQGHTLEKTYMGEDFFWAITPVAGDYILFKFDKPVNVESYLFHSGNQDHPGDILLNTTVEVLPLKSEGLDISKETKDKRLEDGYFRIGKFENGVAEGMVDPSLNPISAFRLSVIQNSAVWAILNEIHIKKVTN
The experiment is described as follows: Specific assay for GnT-IV activity (pyridylaminated oligosaccharide acceptor, HPLC) with purified enzyme. The settings on record: for Activity (%), Inhibition of GnT-IV by Nucleotides: nucleotide 2 mM in the presence of 0.5 mM UDP-GlcNAc, nothing added = 100%. The class given is biochemical, bovine. The procedure: Then, the reaction was terminated by boiling the solution for 2 minutes. […] The fluorescence of pyridylamino groups was detected using excitation at 320 nm and emission at 400 nm.

Experiment [2] deals with T2, GnT-IV (Bos taurus, UniProt O77836).
T2 construct: it is thought that GnT-IV from bovine small intestine is a glycoprotein having at least Asn-linked sugar chains; from tissue; host or cells: bovine small intestine (microsome fraction, Triton X-100 solubilized, purified to Sample 7)
T2 sequence (O77836 1-535): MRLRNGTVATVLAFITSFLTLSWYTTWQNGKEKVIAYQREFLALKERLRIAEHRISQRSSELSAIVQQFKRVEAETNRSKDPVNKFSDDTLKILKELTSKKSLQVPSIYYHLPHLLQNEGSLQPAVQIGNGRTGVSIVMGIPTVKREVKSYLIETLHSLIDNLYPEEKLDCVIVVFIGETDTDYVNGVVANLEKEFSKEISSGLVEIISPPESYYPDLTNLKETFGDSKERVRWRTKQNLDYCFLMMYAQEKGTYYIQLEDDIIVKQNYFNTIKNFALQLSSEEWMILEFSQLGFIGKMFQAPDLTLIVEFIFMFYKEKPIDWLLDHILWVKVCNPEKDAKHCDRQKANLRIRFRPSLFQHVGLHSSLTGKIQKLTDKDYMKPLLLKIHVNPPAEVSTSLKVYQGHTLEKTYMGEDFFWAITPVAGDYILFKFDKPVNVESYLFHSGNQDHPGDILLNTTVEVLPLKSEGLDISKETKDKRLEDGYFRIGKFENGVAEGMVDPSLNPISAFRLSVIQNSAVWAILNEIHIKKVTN
The experiment is described as follows: Action of GnT-IV on glycoproteins (UDP-[14C]GlcNAc, SDS-PAGE and fluorography). Format: biochemical, bovine. The settings on record: 37° C., 20 hours; FIG. 17 Panel B lanes 2 and 5. The procedure: GnT-IV reaction conditions: To 10 μl of a solution containing […] of GnT-IV, a substrate glycoprotein equivalent to 1.6 nmol of biantennary type sugar chains (for fetuin alone, the sugar chain content was 1.6 nmol) and 450 nCi of UDP-[^14C] […] One tenth of the resultant solution was analyzed by SDS-PAGE and fluorography.
For SDS-PAGE, 10-20% gradient gel (Daiichi Kagaku) was used. For fluorography, Amplify (Amersham) was used to expose the samples to X ray film for 20 hours.
GlcNAc as a sugar donor. Then, the reaction products were analyzed by SDS-PAGE and fluorography (Panels A and B, FIG. 17). As shown in lanes 2 and 5 of Panel B in FIG. 17, transfer of [^14 C] GlcNAc to asialo agalacto human transferrin and asialo agalacto, CHO cell-derived recombinant human erythropoietin.

[3] abbreviates: additive 10 mM added to GnT-IV sample freed of metal ions, activity with 10 mM MnCl2 = 100%.

As to `[Cl][Cu][Cl]` [CuCl2], the “Activity (%), Divalent Cation Requirement of GnT-IV” value at GnT-IV [1] (setting [3]) is recorded as 0%. Turning to `Nc1ccn([C@@H]2O[C@H](COP(=O)(O)OP(=O)(O)O)[C@@H](O)[C@H]2O)c(=O)n1` [CDP], at GnT-IV [1], the “Inhibition of GnT-IV by nucleotides / UDP derivatives” value is “little inhibitory effect; also recorded: do not have inhibitory effect” and the “Activity (%), Inhibition of GnT-IV by Nucleotides” value (“Activity (%), Inhibition of GnT-IV” for short) was found to be 112%.

For `[Cl-].[Cl-].[Co+2]` [CoCl2], on GnT-IV [1], the “Activity (%), Divalent Cation Requirement of GnT-IV” value turned out to be 74.8% and the “Effect of divalent cation relative to that of Mn2+” value was “about 70%”.

For the compound `O=c1ccn([C@@H]2O[C@H](COP(=O)(O)O)[C@@H](O)[C@H]2O)c(=O)[nH]1` [UMP], on GnT-IV [1], the “Inhibition of GnT-IV by nucleotides / UDP derivatives” value is “little inhibitory effect” and the “Activity (%), Inhibition of GnT-IV” value was found to be 97.3%. With `NCCCCCCOP(=O)(O)OP(=O)(O)OCC1OC(n2ccc(=O)[nH]c2=O)C(O)C1O` (centres unmarked) [UDP-hexanolamine], the “Activity (%), Inhibition of GnT-IV” value at GnT-IV [1] amounted to 73.6%.

Take `CC(=O)N[C@H]1[C@@H](OP(=O)(O)OP(=O)(O)OC[C@H]2O[C@@H](n3ccc(=O)[nH]c3=O)[C@H](O)[C@@H]2O)O[C@H](CO)[C@H](O)[C@@H]1O` [UDP-N-acetylgalactosamine]: on GnT-IV [1], the “Activity (%), Inhibition of GnT-IV” value is on record as 59.7%.

With `[Ca+2].[Cl-].[Cl-]` [CaCl2], the “Requirement of divalent cation: effect of additive on activity” value (“Requirement of divalent cation” for short) at GnT-IV [1] was “Weak effect”. Also, on GnT-IV [1] (setting [3]), the “Activity (%), Divalent Cation Requirement of GnT-IV” value was found to be 7.2%. On to `Cc1cn([C@H]2C[C@H](O)[C@@H](COP(=O)(O)OP(=O)(O)O)O2)c(=O)[nH]c1=O` [TDP], for which, on GnT-IV [1], the “Inhibition of GnT-IV by nucleotides / UDP derivatives” value is “little inhibitory effect; also recorded: do not have inhibitory effect” and the “Activity (%), Inhibition of GnT-IV” value was determined as 110%.

As to `O=c1ccn([C@@H]2O[C@H](COP(=O)(O)OP(=O)(O)OP(=O)(O)O)[C@@H](O)[C@H]2O)c(=O)[nH]1` [UTP], the “Activity (%), Inhibition of GnT-IV” value at GnT-IV [1] is 88.2%. As for `[Cl-].[Cl-].[Mg+2]` [MgCl2], the “Activity (%), Divalent Cation Requirement of GnT-IV” value at GnT-IV [1] (setting [3]) worked out at 72.5%. For orientation: Km means the concentration of substrate that gives half-maximal velocity. With `CC(=O)N[C@H]1[C@@H](OP(=O)(O)OP(=O)(O)OC[C@H]2O[C@@H](n3ccc(=O)[nH]c3=O)[C@H](O)[C@@H]2O)O[C@H](CO)[C@@H](O)[C@@H]1O` [UDP-GlcNAc], on GnT-IV [1] (GnT-II product type oligosaccharide as receptor substrate, conditions (i)/Reference Example 2, read-out: Km toward UDP-GlcNAc), the Km stood at 220 µM. For the compound `[Cl][Fe][Cl]` [FeCl2], the “Requirement of divalent cation” value on GnT-IV [1] is “Weak effect”. Besides, the “Activity (%), Divalent Cation Requirement of GnT-IV” value on GnT-IV [1] (setting [3]) is reported as 9.8%. For the compound “asialo agalacto, CHO cell-derived recombinant human erythropoietin: recombinant human erythropoietin with high biantennary sugar chain content treated with sialidase and β-galactosidase”, the “Transfer of [14C]GlcNAc to glycoprotein by GnT-IV” value with GnT-IV [2] is “transfer of [^14 C] GlcNAc”. With `OCC(O)CO` [glycerol], at GnT-IV [1], the “Stabilization of the enzyme” value is recorded as “Stabilizing effect is recognized”. Turning to `O=C(O)[C@H]1O[C@H](OP(=O)(O)OP(=O)(O)OC[C@H]2O[C@@H](n3ccc(=O)[nH]c3=O)[C@H](O)[C@@H]2O)[C@H](O)[C@@H](O)[C@@H]1O` [UDP-glucuronic acid], on GnT-IV [1], the “Activity (%), Inhibition of GnT-IV” value was determined as 92.3%.

For `O=c1ccn([C@H]2C[C@H](O)[C@@H](COP(=O)(O)OP(=O)(O)O)O2)c(=O)[nH]1` [2′-deoxy-UDP], the “Activity (%), Inhibition of GnT-IV” value at GnT-IV [1] is given as 67.4%.

Turning to `[Cl][Mn][Cl]` [MnCl2], the “Requirement of divalent cation” value on GnT-IV [1] was “greatest effect”. On GnT-IV [1] (setting [3]), the “Activity (%), Divalent Cation Requirement of GnT-IV” value is on record as 100%. As to “asialo agalacto human transferrin: human transferrin treated with sialidase and β-galactosidase; glycoprotein substrate”, in the experiment with GnT-IV [2], the “Transfer of [14C]GlcNAc to glycoprotein by GnT-IV” value is “transfer of [^14 C] GlcNAc”.

Turning to `O=c1ccn([C@@H]2O[C@H](CO)[C@@H](O)[C@H]2O)c(=O)[nH]1` [Uridine], on GnT-IV [1], the “Inhibition of GnT-IV by nucleotides / UDP derivatives” value was “little inhibitory effect; also recorded: do not have inhibitory effect” and the “Activity (%), Inhibition of GnT-IV” value is 115%. Taken in the same sequence, the figures for `O=c1ccn([C@@H]2O[C@H](COP(=O)(O)OP(=O)(O)O)[C@@H](O)[C@H]2O)c(=O)[nH]1` [UDP] were “inhibited the activity of this enzyme most strongly” and 27.3%.
